Results reported in patent publication US8846669B2, “Oxazolidinone derivative and medical composition containing same” (Legochem Biosciences, Inc., priority 2011, dated 2014).
In brackets after ≈: the same amount, converted by molar mass. Like-named read-outs stand apart in the source and are kept apart here.

How the values were obtained:
Assay in all cases: In vitro antibacterial activity, broth microdilution MIC90
Assay type in all cases: cell-based
[1] = system: Methicillin Resistant Staphylococcus epidermidis
Description: (§1) MIC90 was measured by broth microdilution method based on CLSI standards [reference: Clinical and Laboratory Standards Institute Document. (2000) Methods for Dilution Antimicrobial Susceptibility Test for Bacteria that Grow Aerobically-Fifth Edition: M7-A5. CLSI, Villanova, Pa.].
(§2) Activities of 12 strains including Staphylococcus aureus, Methicillin Resistant Staphylococcus aureus, Staphylococcus epidermidis, Methicillin Resistant Staphylococcus epidermidis, Enterococcus faecalis, Vancomycin Resistant Enterococcus faecalis, Linezolid and Vancomycin Resistant Enterococcus faecalis, Enterococcus faecium, Vancomycin Resistant Enterococcus faecium, Linezolid and Vancomycin Resistant Enterococcus faecium, and Moraxella catarrhalis, were measured, and results are shown in Table 1 below.
(§3) The final concentration of test material in the antibacterial test was from 0.063 μg/mL (minimum) to 128 μg/mL (maximum), and the final concentration of DMSO used as an excipient was 2.5% (V/V). Linezolid represented by Formula B below (manufactured by Pfizer) was used as a control and bacterial activity thereof was compared with those of the test materials.

[2] = system: Enterococcus faecium
Description: as §1, §2, §3

[3] = system: Linezolid and Vancomycin Resistant Enterococcus faecium (strain 10)
Description: as §1, §2, §3

[4] = system: Methicillin Resistant Staphylococcus aureus
Description: as §1, §2, §3

[5] = system: Linezolid and Vancomycin Resistant Enterococcus faecalis
Description: as §1, §2, §3

[6] = system: Staphylococcus epidermidis
Description: as §1, §2, §3

[7] = system: Linezolid and Vancomycin Resistant Enterococcus faecium (strain 11)
Description: as §1, §2, §3

[8] = system: Vancomycin Resistant Enterococcus faecalis
Description: as §1, §2, §3

[9] = system: Moraxella catarrhalis
Description: as §1, §2, §3

[10] = system: Enterococcus faecalis
Description: as §1, §2, §3

[11] = system: Vancomycin Resistant Enterococcus faecium
Description: as §1, §2, §3

[12] = system: Staphylococcus aureus
Description: as §1, §2, §3

[13] = Staphylococcus epidermidis, strain 4, S. epidermidis MR, read-out: MIC90
[14] = Enterococcus faecium, strain 8, E. faecium, read-out: MIC90
[15] = Enterococcus faecium, strain 10, E. faecium VanA LR, read-out: MIC90
[16] = Staphylococcus aureus, strain 2, S. aureus MR, read-out: MIC90
[17] = Enterococcus faecalis, strain 7, E. faecalis VanA LR, read-out: MIC90
[18] = Staphylococcus epidermidis, strain 3, S. epidermidis, read-out: MIC90
[19] = Enterococcus faecium, strain 11, E. faecium VanA LR, read-out: MIC90
[20] = Enterococcus faecalis, strain 6, E. faecalis VanA, read-out: MIC90
[21] = Moraxella catarrhalis, strain 12, M. catarrhalis, read-out: MIC90
[22] = Enterococcus faecalis, strain 5, E. faecalis, read-out: MIC90
[23] = Enterococcus faecium, strain 9, E. faecium VanA, read-out: MIC90
[24] = Staphylococcus aureus, strain 1, S. aureus, read-out: MIC90

Compound | MIC90 ([1]; Staphylococcus epidermidis) [µg/mL] | MIC90 ([2]; Enterococcus faecium) [µg/mL] | MIC90 ([3]; Enterococcus faecium) [µg/mL] | MIC90 ([4]; Staphylococcus aureus) [µg/mL] | MIC90 ([5]; Enterococcus faecalis) [µg/mL] | MIC90 ([6]; Staphylococcus epidermidis) [µg/mL] | MIC90 ([7]; Enterococcus faecium) [µg/mL] | MIC90 ([8]; Enterococcus faecalis) [µg/mL] | MIC90 ([1]; strain 4, S. epidermidis MR) [µg/mL] | MIC90 ([2]; strain 8, E. faecium) [µg/mL] | MIC90 ([3]; strain 10, E. faecium VanA LR) [µg/mL] | MIC90 ([4]; strain 2, S. aureus MR) [µg/mL] | MIC90 ([5]; strain 7, E. faecalis VanA LR) [µg/mL] | MIC90 ([6]; strain 3, S. epidermidis) [µg/mL] | MIC90 ([7]; strain 11, E. faecium VanA LR) [µg/mL] | MIC90 ([8]; strain 6, E. faecalis VanA) [µg/mL] | MIC90 ([9]; strain 12, M. catarrhalis) [µg/mL] | MIC90 ([10]; strain 5, E. faecalis) [µg/mL] | MIC90 ([11]; strain 9, E. faecium VanA) [µg/mL] | MIC90 ([12]; strain 1, S. aureus) [µg/mL] | other results
CC(=O)NC[C@H]1CN(c2ccc(-c3ccc(N4C=NN(C(=O)COC(C)=O)CC4)nc3)c(F)c2)C(=O)O1 [Compound 12] | 0.25 (≈ 0.488 µM) | 0.063 (≈ 0.123 µM) | 1 (≈ 1.95 µM) | 0.25 (≈ 0.488 µM) | 1 (≈ 1.95 µM) | 0.125 (≈ 0.244 µM) | 1 (≈ 1.95 µM) | 0.25 (≈ 0.488 µM) |  |  |  |  |  |  |  |  |  |  |  |  | MIC90 ([9]; Moraxella catarrhalis): 0.5 µg/mL (≈ 0.976 µM); MIC90 ([10]; Enterococcus faecalis): 0.125 µg/mL (≈ 0.244 µM); MIC90 ([11]; Enterococcus faecium): 0.25 µg/mL (≈ 0.488 µM); MIC90 ([12]; Staphylococcus aureus): 0.125 µg/mL (≈ 0.244 µM)
CC(=O)NC[C@H]1CN(c2ccc(-c3ccc(N4CCNC=N4)nc3)c(F)c2)C(=O)O1 [Compound 53] | 2 (≈ 4.85 µM) | 1 (≈ 2.42 µM) | 4 (≈ 9.7 µM) | 2 (≈ 4.85 µM) | 4 (≈ 9.7 µM) | 1 (≈ 2.42 µM) | 4 (≈ 9.7 µM) | 1 (≈ 2.42 µM) |  |  |  |  |  |  |  |  |  |  |  |  | MIC90 ([9]; Moraxella catarrhalis): 4 µg/mL (≈ 9.7 µM); MIC90 ([10]; Enterococcus faecalis): 1 µg/mL (≈ 2.42 µM); MIC90 ([11]; Enterococcus faecium): 1 µg/mL (≈ 2.42 µM); MIC90 ([12]; Staphylococcus aureus): 1 µg/mL (≈ 2.42 µM)
CN1CCN(c2ccc(-c3ccc(N4C[C@H](CNc5ccon5)OC4=O)cc3F)cn2)C=N1 [Compound 40] |  |  |  |  |  |  |  |  | 2 (≈ 4.43 µM) | 0.125 (≈ 0.277 µM) | 4 (≈ 8.86 µM) | 0.25 (≈ 0.554 µM) | 2 (≈ 4.43 µM) | 0.5 (≈ 1.11 µM) | 4 (≈ 8.86 µM) | 1 (≈ 2.22 µM) | 2 (≈ 4.43 µM) | 0.5 (≈ 1.11 µM) | 0.5 (≈ 1.11 µM) | 0.25 (≈ 0.554 µM) | 
CC(=O)NC[C@H]1CN(c2ccc(-c3ccc(N4C=NN(C(=O)COC(=O)CCC(=O)O)CC4)nc3)c(F)c2)C(=O)O1 [Compound 13] |  |  |  |  |  |  |  |  |  |  |  |  |  |  |  |  |  |  |  |  | MIC90 [1, 13]: 2 µg/mL (≈ 3.51 µM); MIC90 [2, 14]: 2 µg/mL (≈ 3.51 µM); MIC90 [3, 15]: 2 µg/mL (≈ 3.51 µM); MIC90 [4, 16]: 2 µg/mL (≈ 3.51 µM); MIC90 [5, 17]: 2 µg/mL (≈ 3.51 µM); MIC90 [6, 18]: 1 µg/mL (≈ 1.75 µM); MIC90 [7, 19]: 2 µg/mL (≈ 3.51 µM); MIC90 [8, 20]: 1 µg/mL (≈ 1.75 µM); MIC90 [9, 21]: 2 µg/mL (≈ 3.51 µM); MIC90 [10, 22]: 1 µg/mL (≈ 1.75 µM); MIC90 [11, 23]: 1 µg/mL (≈ 1.75 µM); MIC90 [12, 24]: 1 µg/mL (≈ 1.75 µM)
O=C1O[C@@H](Cn2ccnn2)CN1c1ccc(-c2ccc(N3C=NOCC3)nc2)c(F)c1 [Compound 60] |  |  |  |  |  |  |  |  |  |  |  |  |  |  |  |  |  |  |  |  | MIC90 [1, 13]: 0.25 µg/mL (≈ 0.59 µM); MIC90 [2, 14]: 0.125 µg/mL (≈ 0.295 µM); MIC90 [3, 15]: 1 µg/mL (≈ 2.36 µM); MIC90 [4, 16]: 0.25 µg/mL (≈ 0.59 µM); MIC90 [5, 17]: 1 µg/mL (≈ 2.36 µM); MIC90 [6, 18]: 0.25 µg/mL (≈ 0.59 µM); MIC90 [7, 19]: 2 µg/mL (≈ 4.72 µM); MIC90 [8, 20]: 0.25 µg/mL (≈ 0.59 µM); MIC90 [9, 21]: 1 µg/mL (≈ 2.36 µM); MIC90 [10, 22]: 0.25 µg/mL (≈ 0.59 µM); MIC90 [11, 23]: 0.125 µg/mL (≈ 0.295 µM); MIC90 [12, 24]: 0.125 µg/mL (≈ 0.295 µM)
O=C1O[C@@H](COc2ccon2)CN1c1ccc(-c2ccc(C3=NOCCN3)nc2)c(F)c1 [Compound 68] |  |  |  |  |  |  |  |  | 2 (≈ 4.55 µM) | 0.25 (≈ 0.569 µM) | >128 | 1 (≈ 2.28 µM) | >128 | 1 (≈ 2.28 µM) | >128 | 2 (≈ 4.55 µM) | >128 | 1 (≈ 2.28 µM) | 1 (≈ 2.28 µM) | 0.5 (≈ 1.14 µM) | 
Cl.NCC(=O)N1CCN(c2ccc(-c3ccc(N4C[C@H](COc5ccon5)OC4=O)cc3F)cn2)C=N1 [Compound 48] |  |  |  |  |  |  |  |  | 4 | 1 | 16 | 1 | 32 | 1 | 32 | 4 | 32 | 4 | 2 | 0.5 | 
NCC(=O)N1CCN(c2ccc(-c3ccc(N4C[C@H](Cn5ccnn5)OC4=O)cc3F)cn2)C=N1 [Compound 38] | 0.5 (≈ 1.04 µM) | 0.25 (≈ 0.521 µM) | 4 (≈ 8.34 µM) | 0.5 (≈ 1.04 µM) | 4 (≈ 8.34 µM) | 0.5 (≈ 1.04 µM) | 4 (≈ 8.34 µM) | 0.5 (≈ 1.04 µM) |  |  |  |  |  |  |  |  |  |  |  |  | MIC90 ([9]; Moraxella catarrhalis): 2 µg/mL (≈ 4.17 µM); MIC90 ([10]; Enterococcus faecalis): 0.25 µg/mL (≈ 0.521 µM); MIC90 ([11]; Enterococcus faecium): 0.5 µg/mL (≈ 1.04 µM); MIC90 ([12]; Staphylococcus aureus): 0.125 µg/mL (≈ 0.261 µM)
O=C(O)CN1CCN(c2ccc(-c3ccc(N4C[C@H](COc5ccon5)OC4=O)cc3F)cn2)C=N1 [Compound 51] |  |  |  |  |  |  |  |  | 4 (≈ 8.06 µM) | 1 (≈ 2.01 µM) | 32 (≈ 64.5 µM) | 1 (≈ 2.01 µM) | 16 (≈ 32.2 µM) | 1 (≈ 2.01 µM) | 32 (≈ 64.5 µM) | 4 (≈ 8.06 µM) | >128 | 4 (≈ 8.06 µM) | 4 (≈ 8.06 µM) | 0.5 (≈ 1.01 µM) | 
